# Results published in patent publication US4652553A, “Steroidal glycolipids as host resistance stimulators” (priority 1985, dated 1987).
# Test system: Pseudomonas aeruginosa
# Experiment: In vivo protection of cyclophosphamide-immunocompromised mice against Pseudomonas aeruginosa (LD50, protective index)
# Design: species or system Pseudomonas aeruginosa (Immunotype 1); CFl female mice
# Settings: Table 3; cyclophosphamide-treated mice; dose not stated in table (initial test dose 40 mg per kg)
# Method: Groups of 15-20 CFl femal mice (Charles River Breeding, Cambridge, MA) weighing 22-28 gm were injected intraperitoneally (i.p.) with cyclophosphamide (Cytoxan; CY) at 250 mg per kg body weight. One to two hours later they were typically injected again with the test material by the route specified. Four days later, the mice were divided into groups of five, each of which were injected i.p. with a different dilution of a suspension of Pseudomonas aeruginosa (Immunotype 1). The number of survivors was determined periodically and an estimate was made of the number of CFU of Pseudomonas organisms necessary to cause 50% lethality by the cumulative method of L. J. Reed and H. Muench (Am. J. Hygiene 27 (1938) 493-497). A protective index (P.I.) was defined as the LD50 for the mice receiving cyclophosphamide and the test compound divided by the LD50 for the mice recieving cyclophosphamide alone. All control mice were injected with aqueous vehicle in the same route and schedule as the test animals.
# All compounds for dosing were suspended in a sterile medium referred to as "aqueous vehicle" which contains 0.9% sodium chloride, 0.5% carboxymethyl cellulose, 0.4% Tween 80, and 0.9% benzyl alcohol unless otherwise stated. Test materials were evaluated via subcutaneous (s.c.), i.p., intramuscular (i.m.), orally (p.o.). and intravenous (i.v.) routes of administration. […]
compound,measurement,value
"C[C@H](N)[C@H]1CC[C@H]2[C@@H]3CC=C4C[C@@H](OCCCCCCS[C@@H]5O[C@H](CO)[C@@H](O)[C@H](O)[C@@H]5O)CC[C@]4(C)[C@H]3CC[C@]12C [Example 14, 6-(20S-Amino-pregn-5-en-3β-yloxy)hexyl 1-thio-β-D-mannopyranoside]",Protective Index (log),4.37 log
